One may read the inhibition in vivo as the drop in the measured response relative to a control, in per cent. Read a high inhibition in vivo as a strong effect.

Assay [1] concerns platelet aggregation induced by PAF. Kind of assay: Inhibition of platelet aggregation induced by PAF. The format is cell-based. Particulars: Oryctolagus cuniculus, male New Zealand rabbits, Table I. The protocol: 1) Inhibition of platelet aggregation induced by PAF
This experimentation was conducted according to the method of R. KINLOUGH. RATHBONE, J. P. CAZENAVE, M. PACKHAM and F. MUSTARD, Lab. Invest. 48, 98, 1980. In this test, New Zealand rabbits were used (male New Zealand rabbits of an average weight of 5 kg).
The determinations are made on a chrono-log Coultronics aggregometer, at […] coupled with a graphic recorder; the results of these determinations (in molecular concentration) are reported on the table I on the central column.

Assay [2] can be described thus: Global ischemia on gerbils. The format is in vivo. The settings on record: Meriones unguiculatus, 168 h, carotides clamped 10 minutes, hippocampes one week later, 3H-PK 11195, percentage of protection compared to control. The procedure:
3) Global ischemia on gerbils For this test, males gerbils were anaesthetized with brietal at the doses of 35 mg/kg IP; thereafter, both carotides were clamped for 10 minutes, then the clamping was released. Treated animals received each 10 mg/kg of the compounds of one of the examples. One week later, the animals were killed and both hippocampes were taken, weighed and frozen at -80° C. After crushing with 1 ml of TRIS-HCl pH 7.4 for 30 seconds, aliquots of each 50 μl of this preparation were incubed in each 1 ml of TRIS-HCl buffer containing ^3 H-PK 11195 at 2 nM (90 Ci/mmole, NENE, Germany) for 1 hour at 25° C. For each preparation, 3 determinations were made. The density of omega 3 sites (marked by the specific ^3 H-PK 11195 marker) are expressed in f-moles of PK 11195/mg of fresh tissues and converted in percentage of protection compared to control.

For a further assay, the target named is benzodiazepine receptors. Kind of assay: Inhibition of the binding to benzodiazepine receptors. The settings on record: rat brains, 1 hour 30 minutes at 4° C., tracers 3H-RO-15-1788 and 3H-RO-5-4864, Table I, read-out: BDZ receptors. An excerpt: 2) Inhibition of the binding to benzodiazepine receptors
The interest of the previous experimentation depends on the results obtained in this experimentation: as a compound of the invention has a benzodiazepine like structure, it is important to check whether the specific benzodiazepine activity would not appear at the dose where platelet aggregation was inhibited.
Therefore, this experimentation has been conducted according to the method of MOHLER H. and RICHARD J. G. Agonist and antagonist benzodiazepine receptor interaction in vitro, Nature, vol. 294, 763-765, 1981.
This experimentation was conducted on rat brains incubated 1 hour 30 minutes at 4° C. using ^3 H-RO-15-1788 and ^3 H-RO-5-4864 (NEN) as tracers and […] and RO-5-4864 as reference antagonists.
The results in molecular concentration are reported in the table I, on the right hand column.

As for `Cc1nnc2n1-c1sc3c(c1C(c1ccccc1Cl)=NC2)CCN(C(=O)CSc1cccs1)C3` [Example 33, 6-(2-chlorophenyl)-9-(2-thienyl-thiomethyl-carbonyl)-7,8,9, 10-tetrahydro-1-methyl-4H-pyrido [4',3':4,5] thieno [3,2-f] 1,2,4-triazolo[4,3-a] 1,4-diazepine], the results for the IC50 (in assay [1]; at benzodiazepine receptors) were 41.2 nM and 5700 nM, respectively. In addition, in assay [2], the inhibition in vivo at 10 mg/kg is 24.8%.

In the case of `Cc1nnc2n1-c1sc3c(c1C(c1ccccc1Cl)=NC2)CCN(C(=S)CSc1cccs1)C3` [Example 34, 6-(2-chlorophenyl)-9-(2-thienyl-thiomethyl-thiocarbonyl)-7,8,9, 10-tetrahydro-1-methyl-4H-pyrido [4',3':4,5] thieno [3,2-f] 1,2,4-triazolo[4,3-a] 1,4-diazepine], the IC50 in assay [1] stood at 128 nM; at benzodiazepine receptors, 720 nM. For the same compound, in assay [2], at 10 mg/kg the inhibition in vivo was 34.7%.

Source of the values: patent publication US5049559A, “Thieno-triazolo-diazepine derivatives useful as anti-ischemic agents” (priority 1989, dated 1991).
